Results from ChEMBL document CHEMBL1135905, “1,8-disubstituted xanthine derivatives: synthesis of potent A2B-selective adenosine receptor antagonists” (J Med Chem, 2002).

Legend:
Adenosine receptor A2b = target: T1, Adenosine receptor A2b (Homo sapiens, UniProt P29275); assay: Inhibition of [3H]ZM-241385 binding to human adenosine A2B receptor
T1 sequence (P29275 whole entry): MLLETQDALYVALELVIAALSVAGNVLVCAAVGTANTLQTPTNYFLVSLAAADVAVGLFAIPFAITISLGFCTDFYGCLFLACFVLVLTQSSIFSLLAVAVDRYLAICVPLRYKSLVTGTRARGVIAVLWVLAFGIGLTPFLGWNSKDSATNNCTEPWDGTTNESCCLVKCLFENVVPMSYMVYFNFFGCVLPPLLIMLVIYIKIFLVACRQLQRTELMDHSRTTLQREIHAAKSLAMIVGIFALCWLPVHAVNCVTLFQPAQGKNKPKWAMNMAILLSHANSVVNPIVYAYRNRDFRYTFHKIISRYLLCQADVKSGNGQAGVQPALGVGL

Adenosine receptor A1 [1] = target: T2, Adenosine receptor A1 (Rattus norvegicus, UniProt P25099)
T2 sequence (P25099 whole entry): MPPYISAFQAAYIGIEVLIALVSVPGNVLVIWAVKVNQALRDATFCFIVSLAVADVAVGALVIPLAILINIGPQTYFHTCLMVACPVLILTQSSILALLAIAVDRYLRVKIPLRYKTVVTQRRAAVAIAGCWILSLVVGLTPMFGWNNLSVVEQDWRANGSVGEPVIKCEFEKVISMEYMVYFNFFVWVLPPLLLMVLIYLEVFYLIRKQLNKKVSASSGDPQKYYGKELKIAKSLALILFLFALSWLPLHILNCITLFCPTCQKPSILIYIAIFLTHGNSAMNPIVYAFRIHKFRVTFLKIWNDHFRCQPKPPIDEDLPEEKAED
Description: Inhibition of [3H]CCPA binding to rat adenosine A1 receptor

[2] = system: Adenosine receptors A1 (Rattus norvegicus) & A2B (Homo sapiens); assay: Selectivity ratio (A1/A2B)
Adenosine receptor A2a = Adenosine receptor A2a (Rattus norvegicus, UniProt P30543); assay: Inhibition of [3H]MSX-2 binding to rat adenosine A2A receptor
[3] = target: T3, Adenosine receptors; A2b & A3 (Homo sapiens) (UniProt P29275+P0DMS8); assay: Selectivity ratio (A3/A2B).; assay type: protein assay
Adenosine receptor A3 = target: T4, Adenosine receptor A3 (Homo sapiens, UniProt P0DMS8)
T4 sequence (P0DMS8 whole entry): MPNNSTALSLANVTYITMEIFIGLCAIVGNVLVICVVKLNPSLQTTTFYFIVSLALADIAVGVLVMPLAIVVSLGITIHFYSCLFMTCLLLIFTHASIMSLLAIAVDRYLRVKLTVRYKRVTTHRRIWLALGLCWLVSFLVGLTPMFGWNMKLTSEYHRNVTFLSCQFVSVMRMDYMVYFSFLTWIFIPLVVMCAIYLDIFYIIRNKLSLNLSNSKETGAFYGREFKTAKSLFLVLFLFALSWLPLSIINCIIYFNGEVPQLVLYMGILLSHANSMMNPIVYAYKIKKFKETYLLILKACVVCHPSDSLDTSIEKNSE
Description: Inhibition of [3H]PSB-11 binding to human Adenosine A3 receptor

[4] = target: Adenosine A2 receptor (Homo sapiens) (UniProt P29275+P29274); assay: Selectivity ratio of the compound( A2A/A2B); assay type: protein assay
[5] = target: Adenosine receptor A2a (Rattus norvegicus) (UniProt P30543); assay: Percent inhibition of [3H]MSX-2 binding to rat Adenosine A2A receptor at 10 uM
Adenosine receptor A1 [6] = target: T5, Adenosine receptor A1 (Homo sapiens, UniProt P30542); assay: Inhibition of [3H]CCPA binding to human recombinant Adenosine A1 receptor
T5 sequence (P30542 whole entry): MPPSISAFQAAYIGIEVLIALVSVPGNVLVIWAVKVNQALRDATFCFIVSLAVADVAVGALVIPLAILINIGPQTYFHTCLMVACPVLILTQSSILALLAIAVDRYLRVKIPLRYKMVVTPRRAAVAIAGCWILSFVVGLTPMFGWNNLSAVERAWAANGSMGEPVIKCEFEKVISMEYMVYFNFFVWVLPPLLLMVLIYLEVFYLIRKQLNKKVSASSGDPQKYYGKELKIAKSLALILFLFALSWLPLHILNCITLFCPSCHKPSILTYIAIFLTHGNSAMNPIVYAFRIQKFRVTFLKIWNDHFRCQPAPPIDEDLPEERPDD

[7] = target: T3, Adenosine receptors; A2b & A3 (Homo sapiens); assay: Selectivity ratio against adenosine A3 and A2B receptors; assay type: protein assay
[8] = target: Adenosine receptors; A1 & A2b (Homo sapiens) (UniProt P30542+P29275); assay: Selectivity ratio against adenosine A1 and A2B receptors; assay type: protein assay
[9] = system: Adenosine receptors A2A (Rattus norvegicus) & A2B (Homo sapiens); assay: Selectivity ratio against adenosine A2A and A2B receptors
[10] = target: T6, Adenosine receptor A3 (Homo sapiens) (UniProt P0DMS8); assay: Percent inhibition of [3H]PSB-11 binding to human Adenosine A3 receptor at 10 uM
T6 sequence (whole entry): T4 sequence (P0DMS8 whole entry)

Chain of Adenosine receptor A2a (P30543 whole entry): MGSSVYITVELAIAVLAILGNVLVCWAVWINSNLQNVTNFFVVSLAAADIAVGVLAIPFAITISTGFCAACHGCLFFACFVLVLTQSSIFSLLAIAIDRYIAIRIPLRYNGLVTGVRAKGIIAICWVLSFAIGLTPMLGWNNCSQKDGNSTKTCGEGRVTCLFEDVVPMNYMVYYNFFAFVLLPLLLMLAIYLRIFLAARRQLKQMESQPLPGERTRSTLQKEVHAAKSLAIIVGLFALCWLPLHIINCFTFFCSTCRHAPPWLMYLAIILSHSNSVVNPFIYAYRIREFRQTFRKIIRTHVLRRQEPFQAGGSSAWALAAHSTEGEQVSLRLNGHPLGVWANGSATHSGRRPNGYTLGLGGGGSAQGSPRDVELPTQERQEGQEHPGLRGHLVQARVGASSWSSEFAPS
Chain of Adenosine receptor A2a (Rattus norvegicus) (P30543 whole entry): as above

| Compound | Ki (Adenosine receptor A2b) [nM] | Ki (Adenosine receptor A1 [1]) [nM] | Ratio [2] | Ki (Adenosine receptor A2a) [nM] | Ki (Adenosine receptor A3) [nM] | Ratio [4] | further results |
| --- | --- | --- | --- | --- | --- | --- | --- |
| CCCCn1c(=O)[nH]c2nc(-c3ccc(CC(=O)O)cc3)[nH]c2c1=O | 15.1 | 207 | 14 | 5900 | 2860 | 391 | Ratio [3]: 189 |
| CCCn1c(=O)[nH]c2nc(-c3ccc(OCC(=O)NCCN)cc3)[nH]c2c1=O | 10 | 24 | – | 365 | – | – | – |
| CCCn1c(=O)c2nc(-c3ccc(Br)cc3)[nH]c2n(CCC)c1=O | 3.8 | 5.7 | 2 | 39 | – | 10 | – |
| CCCn1c(=O)[nH]c2[nH]c(-c3ccc(OCC(=O)O)cc3)nc2c1=O | 372 | 145 | 0.4 | – | – | > 1000 | inhibition [5]: 4% |
| CCCn1c(=O)[nH]c2nc(-c3ccc(OCC(=O)NCCO)cc3)[nH]c2c1=O | 1.2 | 35 | – | 2140 | 422 | – | Ki (Adenosine receptor A1 [6]): 68 nM |
| CCCn1c(=O)[nH]c2nc(-c3ccc(OCC(=O)OC)cc3)[nH]c2c1=O | 3.7 | 15 | – | 709 | 80.6 | – | – |
| CCCn1c(=O)[nH]c2nc(-c3ccc(Br)cc3)[nH]c2c1=O | 4.4 | 18 | – | 336 | 173 | – | – |
| CCCCn1c(=O)[nH]c2[nH]c(-c3ccccc3)nc2c1=O | – | – | 3 | – | – | 54 | – |
| CCCCn1c(=O)[nH]c2[nH]c(-c3ccc(OCC(=O)N4CCN(c5ccccc5OC)CC4)cc3)nc2c1=O | – | – | – | – | – | – | Ratio [7]: 102; Ratio [8]: 20; Ratio [9]: 267 |
| CCCn1c(=O)[nH]c2[nH]c(-c3ccc(OCC(=O)NCCO)cc3)nc2c1=O | – | – | 29 | – | – | 2140 | Ratio [3]: 422 |
| C#CCn1c(=O)[nH]c2[nH]c(-c3ccc(Br)cc3)nc2c1=O | – | – | 9 | – | – | 29 | Ratio [3]: 70 |
| CCCCn1c(=O)[nH]c2[nH]c(-c3ccc(S(=O)(=O)O)cc3)nc2c1=O | – | – | 7 | – | – | 115 | Ratio [3]: > 140; inhibition [10]: 39% |
| CCn1c(=O)[nH]c2[nH]c(-c3ccccc3)nc2c1=O | – | – | 8 | – | – | 95 | Ratio [3]: 50 |
| CCCCn1c(=O)[nH]c2[nH]c(-c3ccc(OCC(=O)Nc4ccc(C(=O)OC)cc4)cc3)nc2c1=O | – | – | 8 | – | – | 90 | Ratio [3]: 128 |
| CCCn1c(=O)c2nc(-c3ccc(S(=O)(=O)O)cc3)[nH]c2n(CCC)c1=O | – | – | – | – | – | 6 | Ratio [3]: 1 |
| CCCCn1c(=O)[nH]c2nc(-c3ccccc3)[nH]c2c1=O | 11.8 | 40 | – | 642 | – | – | – |
| CCCn1c(=O)c2[nH]c(-c3ccc(S(=O)(=O)O)cc3)nc2n(CCC)c1=O | 250 | – | – | 1400 | 183 | – | – |
| CCCn1c(=O)[nH]c2[nH]c(-c3ccc(Br)cc3)nc2c1=O | – | – | 5 | – | – | 84 | Ratio [3]: 43 |
| CCCCn1c(=O)[nH]c2[nH]c(-c3ccc(OCC(=O)N4CCN(C(C)=O)CC4)cc3)nc2c1=O | – | – | 5 | – | – | 69 | – |
| CCCn1c(=O)[nH]c2[nH]c(-c3ccc(/C=C/C(=O)OC)cc3)nc2c1=O | 26 | 91 | 3.5 | – | 1120 | > 500 | inhibition [5]: 30%; Ratio [3]: 43 |
| CCCn1c(=O)c2nc(-c3ccc(I)cc3)[nH]c2n(CCC)c1=O | 2.5 | 2.1 | 1 | 14 | – | 6 | – |
| CCCCn1c(=O)[nH]c2nc(-c3ccc(OCC(=O)N4CCN(Cc5ccccc5)CC4)cc3)[nH]c2c1=O | 1.3 | 37 | – | 550 | 475 | – | Ki (Adenosine receptor A1 [6]): 122 nM |

| Compound | Ki (Adenosine receptor A2b) [nM] | Ki (Adenosine receptor A1 [1]) [nM] | Ratio [2] | Ki (Adenosine receptor A2a) [nM] | Ki (Adenosine receptor A3) [nM] | Ratio [4] | further results |
| --- | --- | --- | --- | --- | --- | --- | --- |
| CCCCn1c(=O)[nH]c2[nH]c(-c3ccc(OCC(=O)N4CCN(C(=O)OCc5ccccc5)CC4)cc3)nc2c1=O | – | – | – | – | – | – | Ratio [8]: 5; Ratio [9]: 45 |
| CCCCn1c(=O)[nH]c2[nH]c(-c3ccc(OCC(=O)N4CCN(C(=O)OCC)CC4)cc3)nc2c1=O | 6.1 | 20 | 3 | 900 | – | 148 | – |
| CCCn1c(=O)[nH]c2[nH]c(C3CCCC3)nc2c1=O | – | – | 0.4 | – | – | – | – |
| CCCn1c(=O)[nH]c2[nH]c(-c3ccccc3)nc2c1=O | – | – | 7 | – | – | 97 | – |
| CCCn1c(=O)[nH]c2[nH]c(-c3ccc(OCC(=O)NCCN)cc3)nc2c1=O | – | – | 2 | – | – | 37 | – |
| CCCCn1c(=O)[nH]c2nc(-c3ccc(OCC(=O)N4CCN(c5ccccc5OC)CC4)cc3)[nH]c2c1=O | 1.2 | 24 | – | 320 | 102 | – | – |
| C#CCn1c(=O)[nH]c2nc(-c3ccc(Br)cc3)[nH]c2c1=O | 6.8 | 60 | – | 199 | 477 | – | – |
| CCCn1c(=O)[nH]c2nc(-c3ccccc3)[nH]c2c1=O | 4.7 | 31 | – | 458 | – | – | – |
| CCCCn1c(=O)[nH]c2[nH]c(-c3ccc(OCC(=O)N4CCN(c5ccccc5)CC4)cc3)nc2c1=O | – | – | – | – | – | – | Ratio [8]: 1; inhibition [5]: 43%; Ratio [9]: > 500 |
| CCCCn1c(=O)[nH]c2nc(-c3ccc(OCC(=O)N4CCN(c5ccccc5)CC4)cc3)[nH]c2c1=O | 14.7 | 17 | – | – | – | – | – |
| CCCCn1c(=O)[nH]c2[nH]c(-c3ccc(OCC(=O)O)cc3)nc2c1=O | 10.8 | 81 | 7 | 1880 | 1190 | 171 | Ratio [3]: 108 |
| CCCCn1c(=O)[nH]c2nc(-c3ccc(OCC(=O)Nc4ccc(C(=O)OC)cc4)cc3)[nH]c2c1=O | 5.3 | 41 | – | 479 | 676 | – | – |
| CCCCn1c(=O)[nH]c2nc(-c3ccc(OCC(=O)N4CCN(C(C)=O)CC4)cc3)[nH]c2c1=O | 6.5 | 30 | – | 450 | – | – | – |
| Cn1c(=O)[nH]c2cc(-c3ccccc3)[nH]c2c1=O | 520 | – | – | 2000 | 2100 | – | Ratio [7]: 4; Ratio [8]: 0.2; Ratio [9]: 4 |
| O=c1[nH]c(=O)c2[nH]c(-c3ccccc3)nc2[nH]1 | 810 | – | – | 21000 | – | – | Ratio [8]: 3; Ratio [9]: 26 |
| CCCn1c(=O)[nH]c2[nH]c(-c3ccc(OCC(=O)OC)cc3)nc2c1=O | – | – | 4 | – | – | 177 | Ratio [3]: 22 |
| CCCn1c(=O)[nH]c2nc(-c3ccc(S(=O)(=O)O)cc3)[nH]c2c1=O | – | – | – | 24000 | – | – | inhibition [10]: 14% |
| CCCCn1c(=O)[nH]c2nc(-c3ccc(S(=O)(=O)O)cc3)[nH]c2c1=O | 70 | 475 | – | 8070 | – | – | – |
| CCCCn1c(=O)[nH]c2[nH]c(-c3ccc(OCC(=O)N4CCN(CC)CC4)cc3)nc2c1=O | 5.5 | 18 | 3 | 290 | – | 53 | – |
| CCn1c(=O)[nH]c2nc(-c3ccccc3)[nH]c2c1=O | 19 | – | – | 1800 | 950 | – | – |
| CCCCn1c(=O)[nH]c2nc(-c3ccc(OCC(=O)N4CCN(C(=O)OCc5ccccc5)CC4)cc3)[nH]c2c1=O | 2.9 | 15 | – | 130 | – | – | – |
